Assay results published in patent US8722376B2, “Firefly luciferase” (Olympus Corporation, priority 2011, dated 2014).
Like-named read-outs stand apart in the source and are kept apart here.

Key:
[1] = test system: CBR (luciferase derived from known click beetles); assay: Km of CBR luciferase (luminescence kinetic analysis); format: biochemical, click beetle; conditions: 0.1 M Tris-HCl (pH 8.0), MgSO4, measured in a similar manner
Description: (§1) A solution of 0.1 M Tris-HCl (pH 8.0) containing each of the purified luciferase, 4 mM of ATP, and 8 mM of MgSO4 was connected to the standard pump of the luminometer, and the measurements was carried out at the same time as addition of 50 μl of the solution to the well. A Luminescensor (ATTO) was used for the measurements. Measurements were repeated 3 times for each luciferin concentration.
(§2) The peak intensity of the obtained photo count value was plotted with respect to luciferin concentration S, defining the initial rate as V. The plots were subjected to curve fitting of Michaelis Menten type, thereby giving Km values. The curve fitting was performed by a nonlinear least-squares method, and the search of the parameter was performed by a Newton method.
(§3) 4-3. Measurement of Km Value with Respect to ATP
(§4) Under various ATP concentrations, the luminescent intensity of the obtained luciferase was measured. Based on the results, Km values with respect to ATP was determined.
(§5) Various […] types of ATP solutions were prepared by adding ATP to 0.1 M Tris-HCl (pH 8.0). These solutions contain ATP at final concentration of 5, 10, 20, 40, 80, 160, 320, 480, 640, 800, 1280, 1600, or 1920 μM. These ATP solutions were each injected into 96-hole in a microplate at a volume of 50 μl. […]
(§6) Table 1 also indicates Km values for known firefly luciferases, measured in a similar manner. […]

[2] = test system: ELuc (luciferase derived from known click beetles); assay: Km of ELuc luciferase (luminescence kinetic analysis); format: biochemical, click beetle; conditions: 0.1 M Tris-HCl (pH 8.0), MgSO4, measured in a similar manner
Description: as §1, §2, §3, §4, §5, §6

[3] = test system: SP1 luciferase, Luciola sp1 (Malaysian firefly, genus Luciola), wild type, SEQ ID NO: 1; assay: Km of SP1 luciferase (luminescence kinetic analysis); format: biochemical; conditions: for Km: 0.1 M Tris-HCl (pH 8.0), MgSO4, Michaelis Menten curve fitting; for Km values with respect to ATP and D-luciferin, compared with known luciferases: FIG. 2, SP1 luciferase versus known luciferases
Description: The measurements were carried out ten times for each sample, and the average of absorbency was used for the calculation.
Various 12 types of ATP solutions were prepared by adding ATP to 0.1 M Tris-HCl (pH 8.0). These solutions contain ATP at final concentration of 5, 10, 20, 40, 80, 160, 320, 480, 640, 800, 1280, 1600, or 1920 μM. These ATP solutions were each injected into 96-hole in a microplate at a volume of 50 μl. […] Measurement was repeated 3 times for each ATP concentration.
The peak intensities of the obtained photon count value were plotted with respect to ATP concentration S, with an initial rate V. The plots were subjected to curve fitting of Michaelis Menten type, thereby giving Km value. The curve fitting was performed by a nonlinear least-squares method, and the search of the parameter was performed by a Newton method.

[4] = test system: CBG (luciferase derived from known click beetles); assay: Km of CBG luciferase (luminescence kinetic analysis); format: biochemical, click beetle; conditions: 0.1 M Tris-HCl (pH 8.0), MgSO4, measured in a similar manner
Description: as §1, §2, §3, §4, §5, §6

[5] = Measurement of luminescent intensity of purified luciferase compared with Rhodamine 6G and P. pyralis luciferase; format: biochemical; conditions: purified enzymes, integration of light 300 nm to 650 nm for 10 seconds
Description: Rhodamine 6G was dissolved into 0.1 M citric acid/0.2 M Na2HPO4 (pH 4.0) solution. The Rhodamine 6G solution was centrifuged for 1 minute at 15,000 rpm, and the supernatant was collected. The collected supernatant is diluted with 0.1 M citric acid/0.2 M Na2HPO4 solution 1000 fold, and the absorbance thereof was measured. Measurement was carried out by NanoVue (GE Healthcare). The measurement at 530 nm was repeated 5 times, and the average absorbance 0.048 was obtained. The concentration of the original Rhodamine 6G solution was calculated by using ε value of Rhodamine (1.16×10^5 mol^−1cm^−1), and the value 414 μM was obtained. The solution was diluted with 0.1 M citric acid/0.2 M Na2HPO4 solution (pH 4.0) to prepare 30 μM of a diluted solution.
Solution 1 having the following composition was prepared with use of the diluted solution.
Solution 2 was prepared by dissolving bis (2,4,6-trichlorophenyl)oxlate (TCPO) so that the final concentration thereof is 3 mM.
100 μl of solution 1 was injected for each well of 96-hole microplate. Measurement was started at the same time as addition of 50 μl of solution 2 with use of a pump, and integration value of photon counts for 10 seconds from addition of solution 2 was obtained. […]
A concentration of the obtained sample was measured by a colorimetric method, and the concentrations of P. pyralsis luciferase and SP1 luciferase were confirmed. […]

HeLa cells = assay: Luminescence activity of SP1 mutants expressed in HeLa cells, corrected by hRluc internal standard; format: cell-based; conditions: 90 minutes after D-luciferin addition, corrected by hRluc luminescence at 10 minutes
Text: The fragment of the nucleic acid having the base sequence of SEQ ID NO: 35 was inserted into between SgfI site and PmeI site of a pF9A CMV hRluc-neo FlexiR vector (Promega). The fragment of the nucleic acid having the base sequence of SEQ ID NO: 36 was inserted into between SgfI site and PmeI site of another pF9A CMV hRluc-neo FlexiR vector. Two types of the obtained expression vectors were each introduced into HeLa cells, and mutants were expressed.
The luminescence intensity of two types of cells expressing mutants was detected by using a cell expressing the original SP1 luciferase without mutations as a comparison. Here, the luminescence intensity of each Hela cell was corrected using the luminescence based on hRluc gene of pF9A CMV hRluc-neo FlexiR vector (Promega) as an internal standard.

HeLa cell = assay: Luminescent intensity of SP1 luciferase expressed in a mammal cell; format: cell-based; conditions: expression in HeLa cell, 1 mM D-luciferin, integration for 10 seconds
Description: SP1 luciferase was expressed in a HeLa cell, and the luminescent intensity in a cell was measured.
For introduction of SP1 luciferase gene, four types of expression vectors were prepared. Nucleic acids each containing a gene prepared by deleting recognition sequences of BamHI and EcoRI from the original SP1 luciferase gene obtained from Luciola sp1 (SEQ ID NO: 3), a gene further optimized for expression in a mammal cell (SEQ ID NO: 4), and two types of genes to which Kozak sequence was further added (SEQ ID NOS: 29 and 30) were each inserted into the multi-cloning site between BamHI and EcoRI of pcDNA3.1(+) vector (Invitrogen). Further, for comparison, a nucleic acid containing a known P. pyralis luciferase gene optimized for expression in a mammal cell was inserted into pcDNA3.1(+) vector similarly.
Five types of plasmids obtained in such a manner described above were each subjected to gene transfection to a HeLa cell by a lipofection method, and D-MEM culture medium was exchanged after 24 hours. […] The luminescent intensities shown in FIG. 4 are integration values for 10 seconds.

[6] = D-luciferin, read-out: Km for ATP
[7] = read-out: Km for D-luciferin, ATP

For `Nc1ncnc2c1ncn2[C@@H]1O[C@H](COP(=O)(O)OP(=O)(O)OP(=O)(O)O)[C@@H](O)[C@H]1O` [ATP], which Km [1, 6] is on record?
Its Km is 47.1 µM.

What about the Km [2, 6] of the same molecule?
Its Km is 182 µM.

And the Km [3, 6]?
The Km was 195 µM.

And the “Km values with respect to ATP and D-luciferin, compared with known luciferases” value [3]?
The value was “higher Km values”.

What about the Km [4, 6] of the same molecule?
The Km was 58.4 µM.

With `O=C(O)[C@H]1CSC(c2nc3ccc(O)cc3s2)=N1` [D-luciferin] as the molecule, how does the Km [1, 7] read?
Its Km is 33.3 µM.

And the Km [2, 7]?
The Km was 12.7 µM.

And the “Km values with respect to ATP and D-luciferin, compared with known luciferases” value [3]?
Its value is “higher Km values”.

What about the Km [3, 7] of the same molecule?
Its Km is 44.6 µM.

What about the Km [4, 7] of the same molecule?
The Km was 1.44 µM.

B1: SP1 luciferase: luciferase of SEQ ID NO: 1 derived from Malaysian firefly Luciola sp1 (protein, listed as Luciola sp.)
chain: MNNMDDGEHIVVGPQPFYPVEEGSAGTQLLKYLKQYSKLGAIAFSNAHTKVDISYAEYLDTSVRLAQALINYGIPIDGRIALCSENCEEFYFPVLAGLYIGAGVAPTNEIYTLRELVHSLGISKPTIVFSSKKGLEKVITVQKTVTCIKTIVILDSKVDYQGYDCLETFIKKYLPAGFSVENFIPREVNRKEQVALVMNSSGSTGLPKGVQITHEGAVTRFSHARDPIYGNQVSPGTAILTIVPFHHGFGMFTNLGYLTCGYRIVMLTKFDEELFLKTLADYKCTSVILVPTLFAILSKSVLLEKYDLSNLVEIASGGAPLAKEVGEAVARRFNLPGIRQGYGLTETTSAIIITPEGDDKPGASGKIVPLFRAKVVDLDTQKTLGPNRRGEICVKGPMLMKGYVDDPVATSQIIDKDGWLHTGDIGYFDEDKHFFIVDRLKSLIKYKGYQVPPAELESVLLQHPDIFDAGVAGLPDPLAGELPGAVVVLEKGRHMTEQQVMDYVAGQVSNAKRLRGGVRFVDEVPKGLTGKIDSKAIREILKSPKAKM
Which “luminescent intensity in comparison to that of P. pyralis luciferase” value [5] does the source give for B1 here?
The value was 4.9 times.

B2: SP1 mutant 2: SP1 luciferase with mutations E356R and V368A; amino acid sequence SEQ ID NO: 38 (protein)
chain: MNNMDDGEHIVVGPQPFYPVEEGSAGTQLLKYLKQYSKLGAIAFSNAHTKVDISYAEYLDTSVRLAQALINYGIPIDGRIALCSENCEEFYFPVLAGLYIGAGVAPTNEIYTLRELVHSLGISKPTIVFSSKKGLEKVITVQKTVTCIKTIVILDSKVDYQGYDCLETFIKKYLPAGFSVENFIPREVNRKEQVALVMNSSGSTGLPKGVQITHEGAVTRFSHARDPIYGNQVSPGTAILTIVPFHHGFGMFTNLGYLTCGYRIVMLTKFDEELFLKTLADYKCTSVILVPTLFAILSKSVLLEKYDLSNLVEIASGGAPLAKEVGEAVARRFNLPGIRQGYGLTETTSAIIITPRGDDKPGASGKIAPLFRAKVVDLDTQKTLGPNRRGEICVKGPMLMKGYVDDPVATSQIIDKDGWLHTGDIGYFDEDKHFFIVDRLKSLIKYKGYQVPPAELESVLLQHPDIFDAGVAGLPDPLAGELPGAVVVLEKGRHMTEQQVMDYVAGQVSNAKRLRGGVRFVDEVPKGLTGKIDSKAIREILKSPKAKM
modifications: Luciola sp. mutant 2
Which “luminescence intensity in comparison to the original SP1” value (HeLa cells) does the source give for B2 here?
The value was “increased”.

B3: SP1 luciferase codon optimized: SP1 luciferase expressed from gene optimized for expression in a mammal cell (SEQ ID NO: 4) (protein, listed as Luciola sp.)
chain: MNNMDDGEHIVVGPQPFYPVEEGSAGTQLLKYLKQYSKLGAIAFSNAHTKVDISYAEYLDTSVRLAQALINYGIPIDGRIALCSENCEEFYFPVLAGLYIGAGVAPTNEIYTLRELVHSLGISKPTIVFSSKKGLEKVITVQKTVTCIKTIVILDSKVDYQGYDCLETFIKKYLPAGFSVENFIPREVNRKEQVALVMNSSGSTGLPKGVQITHEGAVTRFSHARDPIYGNQVSPGTAILTIVPFHHGFGMFTNLGYLTCGYRIVMLTKFDEELFLKTLADYKCTSVILVPTLFAILSKSVLLEKYDLSNLVEIASGGAPLAKEVGEAVARRFNLPGIRQGYGLTETTSAIIITPEGDDKPGASGKIVPLFRAKVVDLDTQKTLGPNRRGEICVKGPMLMKGYVDDPVATSQIIDKDGWLHTGDIGYFDEDKHFFIVDRLKSLIKYKGYQVPPAELESVLLQHPDIFDAGVAGLPDPLAGELPGAVVVLEKGRHMTEQQVMDYVAGQVSNAKRLRGGVRFVDEVPKGLTGKIDSKAIREILKSPKAKM
For B3, which “increase of luminescent intensity in comparison to SP1 luciferase without codon optimization” value (HeLa cell) is on record?
The value was 16.2 times.

What about the “luminescent intensity in comparison to that of P. pyralis luciferase after codon optimization” value (HeLa cell) of the same molecule?
Its value is 1.7 times.

B4: SP1 mutant 1: SP1 luciferase with mutations D438G, I532R and E356R; amino acid sequence SEQ ID NO: 37 (protein)
chain: MNNMDDGEHIVVGPQPFYPVEEGSAGTQLLKYLKQYSKLGAIAFSNAHTKVDISYAEYLDTSVRLAQALINYGIPIDGRIALCSENCEEFYFPVLAGLYIGAGVAPTNEIYTLRELVHSLGISKPTIVFSSKKGLEKVITVQKTVTCIKTIVILDSKVDYQGYDCLETFIKKYLPAGFSVENFIPREVNRKEQVALVMNSSGSTGLPKGVQITHEGAVTRFSHARDPIYGNQVSPGTAILTIVPFHHGFGMFTNLGYLTCGYRIVMLTKFDEELFLKTLADYKCTSVILVPTLFAILSKSVLLEKYDLSNLVEIASGGAPLAKEVGEAVARRFNLPGIRQGYGLTETTSAIIITPRGDDKPGASGKIVPLFRAKVVDLDTQKTLGPNRRGEICVKGPMLMKGYVDDPVATSQIIDKDGWLHTGDIGYFDEDKHFFIVGRLKSLIKYKGYQVPPAELESVLLQHPDIFDAGVAGLPDPLAGELPGAVVVLEKGRHMTEQQVMDYVAGQVSNAKRLRGGVRFVDEVPKGLTGKRDSKAIREILKSPKAKM
modifications: Luciola sp. mutant 1
With B4 as the molecule, how does the “luminescence intensity in comparison to the original SP1” value (HeLa cells) read?
The value was “increased”.
